Source: ChEMBL document CHEMBL4699664, “Rational Design of 2-Chloroadenine Derivatives as Highly Selective Phosphodiesterase 8A Inhibitors” (J Med Chem, 2020)
Values after ≈ are worked out from the molar mass of the structure shown. Active and inactive are the calls of the source. The rule behind the calls is not given here.

Tests used:
Cytochrome P450 3A4 = Cytochrome P450 3A4 (Homo sapiens, UniProt P08684); assay: Inhibition of CYP3A4 in human liver microsomes using midazolam as substrate in presence of NADPH; format: ADME
Chain of Cytochrome P450 3A4 (P08684 whole entry): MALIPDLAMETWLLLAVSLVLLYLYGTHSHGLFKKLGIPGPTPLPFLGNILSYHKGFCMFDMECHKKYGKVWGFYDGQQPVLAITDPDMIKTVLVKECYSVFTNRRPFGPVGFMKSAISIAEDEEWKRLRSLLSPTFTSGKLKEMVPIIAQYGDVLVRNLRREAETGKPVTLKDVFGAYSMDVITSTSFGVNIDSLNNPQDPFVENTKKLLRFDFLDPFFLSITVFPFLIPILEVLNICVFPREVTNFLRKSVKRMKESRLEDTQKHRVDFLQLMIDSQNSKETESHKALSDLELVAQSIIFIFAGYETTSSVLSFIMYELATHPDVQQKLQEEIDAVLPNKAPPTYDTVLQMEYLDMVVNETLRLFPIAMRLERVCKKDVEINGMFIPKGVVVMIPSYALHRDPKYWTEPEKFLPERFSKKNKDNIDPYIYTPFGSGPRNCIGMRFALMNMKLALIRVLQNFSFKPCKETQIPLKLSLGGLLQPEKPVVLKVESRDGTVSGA

[1] = Dissociation constant, pKa of the compound; format: physicochemical
[2] = Effective permeability of compound by PAMPA-BBB assay; format: ADME; details: read-out: permeability
[3] = Cmax in Sprague-Dawley rat at 10 mg/kg, po measured upto 24 hrs by LC-MS/MS analysis; format: ADME, organism-based; parameters: route oral, dose 10 mg/kg, time <=24; details: in vivo
Cytochrome P450 2C19 = Cytochrome P450 2C19 (Homo sapiens, UniProt P33261); assay: Inhibition of CYP2C19 in human liver microsomes in presence of NADPH; format: ADME
[4] = Half life in Sprague-Dawley rat at 2.5 mg/kg, iv measured upto 24 hrs by LC-MS/MS analysis; format: ADME, organism-based; details: in vivo
[5] = Tmax in Sprague-Dawley rat at 10 mg/kg, po measured upto 24 hrs by LC-MS/MS analysis; format: ADME, organism-based; details: in vivo
[6] = Half life in Sprague-Dawley rat at 10 mg/kg, po measured upto 24 hrs by LC-MS/MS analysis; format: ADME, organism-based; details: in vivo
[7] = target: Dual specificity calcium/calmodulin-dependent 3',5'-cyclic nucleotide phosphodiesterase 1B (Homo sapiens, UniProt Q01064); assay: Inhibition of PDE1B (146-506 residues) (unknown origin) expressed in Escherichia coli BL21 using [3H]-cAMP substrate incubated for 15 mins by liquid scintillation counting method
Chain of Dual specificity calcium/calmodulin-dependent 3',5'-cyclic nucleotide phosphodiesterase 1B (Q01064 whole entry, the tested form may be a part): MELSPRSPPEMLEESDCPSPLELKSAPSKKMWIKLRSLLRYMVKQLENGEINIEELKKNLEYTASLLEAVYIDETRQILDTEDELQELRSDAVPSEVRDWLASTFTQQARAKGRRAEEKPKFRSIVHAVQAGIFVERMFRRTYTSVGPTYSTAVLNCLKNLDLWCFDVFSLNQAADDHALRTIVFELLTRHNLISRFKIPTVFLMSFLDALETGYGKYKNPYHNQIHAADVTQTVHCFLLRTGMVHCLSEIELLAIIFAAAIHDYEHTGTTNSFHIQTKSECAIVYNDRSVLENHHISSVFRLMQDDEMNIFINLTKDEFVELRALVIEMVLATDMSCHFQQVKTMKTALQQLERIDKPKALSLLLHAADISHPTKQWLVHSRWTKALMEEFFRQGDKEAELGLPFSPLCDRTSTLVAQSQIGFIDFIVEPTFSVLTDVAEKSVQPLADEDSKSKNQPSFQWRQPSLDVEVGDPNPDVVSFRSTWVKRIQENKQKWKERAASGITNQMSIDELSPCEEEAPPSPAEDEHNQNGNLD

[8] = AUC (0 to t) in Sprague-Dawley rat at 10 mg/kg, po measured upto 24 hrs by LC-MS/MS analysis; format: ADME, organism-based; parameters: route oral, dose 10 mg/kg, time <=24; details: in vivo
[9] = Lipophilicity, log P of the compound; format: physicochemical; details: octanol/water
Cytochrome P450 2C9 = Cytochrome P450 2C9 (Homo sapiens, UniProt P11712); assay: Inhibition of CYP2C9 in human liver microsomes in presence of NADPH; format: ADME
Mus musculus [10] = assay: Anti-VaD activity against UCCAO-induced spatial memory deficient C57BL/6J mouse model assessed as improvement in spatial learning and memory by measuring increased the residence time in the platform area at 3 mg/kg, po administered for 21 days by Morris water maze test; format: functional, organism-based; details: time 21.0 day
[11] = Protein binding in human plasma; format: ADME, cell-free; details: read-out: PPB (converted)
[12] = Tmax in Sprague-Dawley rat at 2.5 mg/kg, iv measured upto 24 hrs by LC-MS/MS analysis; format: ADME, organism-based; details: in vivo
[13] = AUC (0 to infinity) in Sprague-Dawley rat at 2.5 mg/kg, iv measured upto 24 hrs by LC-MS/MS analysis; format: ADME, organism-based; parameters: route intravenous, dose 2.5 mg/kg, time <=24; details: in vivo
Cytochrome P450 2D6 = Cytochrome P450 2D6 (Homo sapiens, UniProt P10635); assay: Inhibition of CYP2D6 in human liver microsomes in presence of NADPH; format: ADME
Chain of Cytochrome P450 2D6 (P10635 whole entry): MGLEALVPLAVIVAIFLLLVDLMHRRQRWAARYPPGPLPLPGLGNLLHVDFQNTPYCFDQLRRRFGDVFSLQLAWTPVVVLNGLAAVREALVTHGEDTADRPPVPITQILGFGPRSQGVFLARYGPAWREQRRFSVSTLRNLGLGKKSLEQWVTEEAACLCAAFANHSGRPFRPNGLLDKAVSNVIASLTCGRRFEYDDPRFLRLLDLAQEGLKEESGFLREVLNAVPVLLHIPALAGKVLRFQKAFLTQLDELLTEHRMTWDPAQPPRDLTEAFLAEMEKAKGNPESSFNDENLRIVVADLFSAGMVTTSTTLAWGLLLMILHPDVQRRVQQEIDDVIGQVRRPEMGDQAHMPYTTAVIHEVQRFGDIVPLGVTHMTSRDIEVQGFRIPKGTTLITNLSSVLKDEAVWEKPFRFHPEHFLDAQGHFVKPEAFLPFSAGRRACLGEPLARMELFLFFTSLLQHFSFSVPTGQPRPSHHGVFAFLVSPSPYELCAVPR

Mus musculus [14] = assay: Anti-VaD activity against UCCAO-induced spatial memory deficient C57BL/6J mouse model assessed as improvement in spatial learning and memory by measuring increased the frequency of platform site crossing at 3 mg/kg, po administered for 21 days by Morris water maze test; format: functional, organism-based; details: time 21.0 day
Mus musculus [15] = assay: Anti-VaD activity against UCCAO-induced spatial memory deficient C57BL/6J mouse model assessed as improvement in spatial learning and memory by measuring increase in latency time at 3 mg/kg, po administered for 21 days by passive avoidance test; format: functional, organism-based; details: time 21.0 day
[16] = target: High affinity cGMP-specific 3',5'-cyclic phosphodiesterase 9A (Homo sapiens, UniProt O76083); assay: Inhibition of PDE9A2 (181-506 residues) (unknown origin) expressed in Escherichia coli BL21 using [3H]-cAMP substrate incubated for 15 mins by liquid scintillation counting method
Chain of High affinity cGMP-specific 3',5'-cyclic phosphodiesterase 9A (O76083 whole entry, the tested form may be a part): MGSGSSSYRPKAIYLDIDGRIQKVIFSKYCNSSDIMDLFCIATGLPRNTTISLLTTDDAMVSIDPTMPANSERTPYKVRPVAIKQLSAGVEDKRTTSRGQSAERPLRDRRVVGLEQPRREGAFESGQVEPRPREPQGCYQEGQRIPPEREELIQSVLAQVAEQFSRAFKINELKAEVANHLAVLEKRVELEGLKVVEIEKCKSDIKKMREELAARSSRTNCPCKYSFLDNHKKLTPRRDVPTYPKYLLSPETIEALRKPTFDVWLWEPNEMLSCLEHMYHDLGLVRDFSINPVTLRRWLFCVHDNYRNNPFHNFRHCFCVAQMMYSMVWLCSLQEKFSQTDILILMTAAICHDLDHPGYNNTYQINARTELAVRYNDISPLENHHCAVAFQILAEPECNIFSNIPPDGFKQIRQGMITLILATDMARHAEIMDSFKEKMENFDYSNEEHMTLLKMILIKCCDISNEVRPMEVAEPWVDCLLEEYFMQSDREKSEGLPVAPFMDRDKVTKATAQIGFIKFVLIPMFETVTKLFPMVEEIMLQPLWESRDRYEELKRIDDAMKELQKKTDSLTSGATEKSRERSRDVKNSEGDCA

[17] = target: cGMP-inhibited 3',5'-cyclic phosphodiesterase 3A (Homo sapiens, UniProt Q14432); assay: Inhibition of PDE3A (679-1087 residues) (unknown origin) expressed in Escherichia coli BL21 using [3H]-cAMP substrate incubated for 15 mins by liquid scintillation counting method
Chain of cGMP-inhibited 3',5'-cyclic phosphodiesterase 3A (Q14432 whole entry, the tested form may be a part): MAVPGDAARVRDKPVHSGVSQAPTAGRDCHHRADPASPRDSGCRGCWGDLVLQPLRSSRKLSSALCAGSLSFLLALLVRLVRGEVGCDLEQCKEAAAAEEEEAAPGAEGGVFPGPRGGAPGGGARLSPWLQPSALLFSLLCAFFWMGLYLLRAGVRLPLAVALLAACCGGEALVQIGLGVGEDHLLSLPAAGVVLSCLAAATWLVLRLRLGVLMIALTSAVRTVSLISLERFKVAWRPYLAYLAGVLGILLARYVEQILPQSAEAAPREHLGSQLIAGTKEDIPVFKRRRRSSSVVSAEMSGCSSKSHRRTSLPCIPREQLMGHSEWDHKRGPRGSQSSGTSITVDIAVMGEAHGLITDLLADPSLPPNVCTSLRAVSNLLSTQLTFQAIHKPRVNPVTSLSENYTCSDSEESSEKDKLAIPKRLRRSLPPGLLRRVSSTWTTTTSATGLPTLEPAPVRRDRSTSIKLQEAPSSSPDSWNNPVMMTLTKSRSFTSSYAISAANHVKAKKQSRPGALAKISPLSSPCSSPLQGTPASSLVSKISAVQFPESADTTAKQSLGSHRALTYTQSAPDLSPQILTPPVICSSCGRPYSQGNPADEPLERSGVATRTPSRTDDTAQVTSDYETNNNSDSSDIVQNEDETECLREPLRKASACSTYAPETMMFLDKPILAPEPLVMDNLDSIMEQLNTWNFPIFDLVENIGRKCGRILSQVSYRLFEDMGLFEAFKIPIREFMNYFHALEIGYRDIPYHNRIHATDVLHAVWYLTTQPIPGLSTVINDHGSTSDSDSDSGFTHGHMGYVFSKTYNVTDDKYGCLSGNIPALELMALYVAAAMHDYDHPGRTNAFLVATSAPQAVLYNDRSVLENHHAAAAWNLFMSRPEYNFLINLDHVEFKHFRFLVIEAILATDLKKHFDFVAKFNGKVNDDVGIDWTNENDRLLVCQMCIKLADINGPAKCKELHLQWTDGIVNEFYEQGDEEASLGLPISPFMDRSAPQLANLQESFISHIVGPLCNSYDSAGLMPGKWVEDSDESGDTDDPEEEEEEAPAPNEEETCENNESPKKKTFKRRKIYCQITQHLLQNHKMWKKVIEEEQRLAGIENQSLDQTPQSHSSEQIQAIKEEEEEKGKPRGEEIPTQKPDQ

[18] = AUC (0 to infinity) in Sprague-Dawley rat at 10 mg/kg, po measured upto 24 hrs by LC-MS/MS analysis; format: ADME, organism-based; parameters: route oral, dose 10 mg/kg, time <=24; details: in vivo
[19] = Cmax in Sprague-Dawley rat at 2.5 mg/kg, iv measured upto 24 hrs by LC-MS/MS analysis; format: ADME, organism-based; parameters: route intravenous, dose 2.5 mg/kg, time <=24; details: in vivo
[20] = Aqueous solubility of compound at pH 7.3 by HPLC analysis; format: physicochemical; details: aqueous medium
[21] = target: Voltage-gated inwardly rectifying potassium channel KCNH2 (Homo sapiens, UniProt Q12809); assay: Inhibition of human ERG expressed in CHO cells by patch clamp method; format: cell-based
[22] = Oral bioavailability in Sprague-Dawley rat at 10 mg/kg measured upto 24 hrs by LC-MS/MS analysis; format: ADME, organism-based; details: in vivo
[23] = MRT (0 to t) in Sprague-Dawley rat at 10 mg/kg, po measured upto 24 hrs by LC-MS/MS analysis; format: ADME, organism-based; details: in vivo
Mus musculus [24] = assay: Anti-VaD activity against UCCAO-induced spatial memory deficient C57BL/6J mouse model assessed as improvement in spatial learning and memory by measuring reduction in escape latency at 3 mg/kg, po administered for 21 days by Morris water maze test; format: functional, organism-based; details: time 21.0 day
[25] = target: High affinity 3',5'-cyclic-AMP phosphodiesterase 7A (Homo sapiens, UniProt Q13946); assay: Inhibition of PDE7A1 (130-482 residues) (unknown origin) expressed in Escherichia coli BL21 using [3H]-cAMP substrate incubated for 15 mins by liquid scintillation counting method
Chain of High affinity 3',5'-cyclic-AMP phosphodiesterase 7A (Q13946 whole entry, the tested form may be a part): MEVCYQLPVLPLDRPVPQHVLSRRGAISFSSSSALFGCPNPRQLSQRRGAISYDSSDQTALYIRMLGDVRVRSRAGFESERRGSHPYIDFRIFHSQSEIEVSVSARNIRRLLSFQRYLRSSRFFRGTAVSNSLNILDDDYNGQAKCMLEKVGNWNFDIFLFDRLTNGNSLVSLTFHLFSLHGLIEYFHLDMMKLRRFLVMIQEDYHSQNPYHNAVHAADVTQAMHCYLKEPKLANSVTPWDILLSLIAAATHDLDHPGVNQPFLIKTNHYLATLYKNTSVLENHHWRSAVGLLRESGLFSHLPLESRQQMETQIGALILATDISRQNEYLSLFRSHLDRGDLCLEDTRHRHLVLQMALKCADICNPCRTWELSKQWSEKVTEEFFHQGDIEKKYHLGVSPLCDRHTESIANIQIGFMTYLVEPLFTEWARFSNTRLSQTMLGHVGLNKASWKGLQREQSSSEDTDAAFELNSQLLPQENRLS

Mus musculus [26] = assay: Anti-VaD activity against UCCAO-induced spatial memory deficient C57BL/6J mouse model assessed as improvement in spatial learning and memory by measuring decrease in error rate at 3 mg/kg, po administered for 21 days by passive avoidance test; format: functional, organism-based; details: time 21.0 day
[27] = target: Dual 3',5'-cyclic-AMP and -GMP phosphodiesterase 11A (Homo sapiens, UniProt Q9HCR9); assay: Inhibition of PDE11A (588-911 residues) (unknown origin) expressed in Escherichia coli BL21 using [3H]-cAMP substrate incubated for 15 mins by liquid scintillation counting method
Cytochrome P450 1A2 = target: T1, Cytochrome P450 1A2 (Homo sapiens, UniProt P05177); assay: Inhibition of CYP1A2 in human liver microsomes in presence of NADPH; format: ADME
T1 sequence (P05177 whole entry): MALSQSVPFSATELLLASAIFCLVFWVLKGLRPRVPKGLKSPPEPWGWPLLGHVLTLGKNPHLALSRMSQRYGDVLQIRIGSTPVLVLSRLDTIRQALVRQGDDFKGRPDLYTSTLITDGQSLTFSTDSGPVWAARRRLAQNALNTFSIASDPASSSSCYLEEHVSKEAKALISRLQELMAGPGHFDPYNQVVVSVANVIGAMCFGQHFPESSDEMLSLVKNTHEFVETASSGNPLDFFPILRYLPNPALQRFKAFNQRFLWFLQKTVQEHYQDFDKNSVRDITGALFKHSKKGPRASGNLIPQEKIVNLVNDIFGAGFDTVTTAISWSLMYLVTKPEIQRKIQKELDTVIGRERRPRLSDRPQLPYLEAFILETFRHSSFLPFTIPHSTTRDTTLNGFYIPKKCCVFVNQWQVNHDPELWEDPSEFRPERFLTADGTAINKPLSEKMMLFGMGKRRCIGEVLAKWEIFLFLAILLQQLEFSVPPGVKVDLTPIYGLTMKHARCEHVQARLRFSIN

[28] = AUC (0 to t) in Sprague-Dawley rat at 2.5 mg/kg, iv measured upto 24 hrs by LC-MS/MS analysis; format: ADME, organism-based; parameters: route intravenous, dose 2.5 mg/kg, time <=24; details: in vivo
[29] = MRT (0 to t) in Sprague-Dawley rat at 2.5 mg/kg, iv measured upto 24 hrs by LC-MS/MS analysis; format: ADME, organism-based; details: in vivo
[30] = Inhibition of PDE5A1 (535-860 residues) (unknown origin) expressed in Escherichia coli BL21 using [3H]-cAMP substrate incubated for 15 mins by liquid scintillation counting method; parameters: species or system Homo sapiens
[31] = target: T2, High affinity cAMP-specific and IBMX-insensitive 3',5'-cyclic phosphodiesterase 8A (Homo sapiens, UniProt O60658); assay: Inhibition of PDE8A1 (480 to 820 residues) (unknown origin) expressed in Escherichia coli BL21 using [3H]-cAMP substrate incubated for 15 mins by liquid scintillation counting method
T2 sequence (O60658 whole entry, the tested form may be a part): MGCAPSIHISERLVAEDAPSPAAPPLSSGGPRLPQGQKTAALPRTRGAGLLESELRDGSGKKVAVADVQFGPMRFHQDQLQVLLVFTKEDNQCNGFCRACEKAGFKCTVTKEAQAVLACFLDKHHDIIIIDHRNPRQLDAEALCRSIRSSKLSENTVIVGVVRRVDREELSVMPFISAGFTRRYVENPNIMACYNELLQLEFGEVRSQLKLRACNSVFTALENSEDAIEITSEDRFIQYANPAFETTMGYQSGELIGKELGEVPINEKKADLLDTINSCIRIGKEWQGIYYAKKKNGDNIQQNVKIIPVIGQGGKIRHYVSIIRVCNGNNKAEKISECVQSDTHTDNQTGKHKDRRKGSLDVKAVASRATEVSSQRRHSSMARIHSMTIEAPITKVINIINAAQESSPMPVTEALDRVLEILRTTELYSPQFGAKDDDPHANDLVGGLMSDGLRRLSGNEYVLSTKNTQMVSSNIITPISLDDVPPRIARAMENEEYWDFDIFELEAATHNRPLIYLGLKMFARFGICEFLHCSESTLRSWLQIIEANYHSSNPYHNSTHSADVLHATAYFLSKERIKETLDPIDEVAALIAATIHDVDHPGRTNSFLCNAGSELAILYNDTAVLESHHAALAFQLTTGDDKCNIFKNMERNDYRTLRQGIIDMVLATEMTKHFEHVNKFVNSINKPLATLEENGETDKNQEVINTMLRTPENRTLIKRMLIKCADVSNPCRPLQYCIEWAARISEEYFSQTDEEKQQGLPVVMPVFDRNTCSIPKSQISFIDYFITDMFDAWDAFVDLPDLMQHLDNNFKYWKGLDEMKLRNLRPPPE

[32] = target: T2, High affinity cAMP-specific and IBMX-insensitive 3',5'-cyclic phosphodiesterase 8A; assay: Inhibition of PDE8A1 (480 to 820 residues) (unknown origin) expressed in Escherichia coli BL21 using [3H]-cAMP substrate at 1 uM incubated for 15 mins by liquid scintillation counting method relative to control
Mus musculus [33] = assay: Anti-VaD activity against UCCAO-induced spatial memory deficient C57BL/6J mouse model assessed as improvement in spatial learning and memory by measuring reduction in escape latency at 1 mg/kg, po administered for 21 days by Morris water maze test; format: functional, organism-based; details: time 21.0 day
Mus musculus [34] = assay: Anti-VaD activity against UCCAO-induced spatial memory deficient C57BL/6J mouse model assessed as improvement in spatial learning and memory by measuring increased the frequency of platform site crossing at 1 mg/kg, po administered for 21 days by Morris water maze test; format: functional, organism-based; details: time 21.0 day
Mus musculus [35] = assay: Anti-VaD activity against UCCAO-induced spatial memory deficient C57BL/6J mouse model assessed as improvement in spatial learning and memory by measuring increase in latency time at 1 mg/kg, po administered for 21 days by passive avoidance test; format: functional, organism-based; details: time 21.0 day
Mus musculus [36] = assay: Anti-VaD activity against UCCAO-induced spatial memory deficient C57BL/6J mouse model assessed as improvement in spatial learning and memory by measuring increased the residence time in the platform area at 1 mg/kg, po administered for 21 days by Morris water maze test; format: functional, organism-based; details: time 21.0 day
Mus musculus [37] = assay: Anti-VaD activity against UCCAO-induced spatial memory deficient C57BL/6J mouse model assessed as improvement in spatial learning and memory by measuring decrease in error rate at 1 mg/kg, po administered for 21 days by passive avoidance test; format: functional, organism-based; details: time 21.0 day

SMILES: C[C@@H](c1cc(OCC(F)F)ccn1)n1cnc2c(N)nc(Cl)nc21
- IC50 (Cytochrome P450 3A4): > 25 µM
- pKa [1]: 3.69
- Papp [2]: 6 ×10⁻⁶ cm/s
- Cmax [3]: 1940 ng/mL
- IC50 (Cytochrome P450 2C19): > 25 µM
- half-life [4]: 2.36 h
- Tmax [5]: 4 h
- half-life [6]: 2.82 h
- IC50 [7]: > 10 µM
- AUC(0-t) at 24 h [8]: 17500 ng·h/mL
- logP [9]: 3.84
- IC50 (Cytochrome P450 2C9): > 25 µM
- Activity (Mus musculus [10]): Active
- fraction unbound [11]: 0.22
- Tmax [12]: 8.4 min
- AUC(0-inf) [13]: 9420 ng·h/mL
- IC50 (Cytochrome P450 2D6): > 25 µM
- Activity (Mus musculus [14]): Active
- Activity (Mus musculus [15]): Active
- IC50 [16]: > 10 µM
- IC50 [17]: > 10 µM
- AUC(0-inf) [18]: 17600 ng·h/mL
- Cmax [19]: 2190 ng/mL
- solubility [20]: 108 µg/mL (≈ 304 µM)
- IC50 [21]: 18 µM
- bioavailability [22]: 47%
- MRT last at 24 h [23]: 7.2 h
- Activity (Mus musculus [24]): Active
- IC50 [25]: > 10 µM
- Activity (Mus musculus [26]): Active
- IC50 [27]: > 10 µM
- IC50 (Cytochrome P450 1A2): > 25 µM
- AUC(0-t) at 24 h [28]: 9410 ng·h/mL
- MRT last at 24 h [29]: 4.48 h
- IC50 [30]: > 10 µM

SMILES: Nc1nc(Cl)nc2c1ncn2Cc1cc(OCC(F)F)ccn1
- IC50 [31]: 0.36 µM

SMILES: Cc1cccc(Cn2cnc3c(N)nc(Cl)nc32)n1
- inhibition [32]: 14%

SMILES: Nc1nc(Cl)nc2c1ncn2Cc1ccccn1
- inhibition [32]: 24%

SMILES: COc1cc2c(cc1OC)C(=O)C(CC1CCN(Cc3ccccc3)CC1)C2 (stereo not drawn)
- Activity (Mus musculus [33]): Active
- Activity (Mus musculus [34]): Active
- Activity (Mus musculus [35]): Active
- Activity (Mus musculus [36]): Active
- Activity (Mus musculus [37]): Active
